Laboratory results: patent US20250057910A1, “Application of Polypeptide in Preparation of Product for Preventing or Treating Skin Injury Diseases” (Sichuan Gooddoctor Panxi Pharmaceutical Co., Ltd., priority 2021, published 2025)
Ends that are not written are not given here.

Test system: SD rats
Test: Healing of full-layer skin defect wound in SD rats
Assay type: in vivo, rat
Details: SD rats, topical once a day, polypeptide 50 μg/cm^2, comparative polypeptide 1 41.90 μg/cm^2, comparative polypeptide 2 52.66 μg/cm^2, Mean ± SD, n = 8
Procedure: Experimental animals: SD male rats, SPF grade, 6 weeks old, weighing 180-220 g, from Beijing Vital River Laboratory Animal Technology Co., Ltd., with the experimental animal quality certification number of NO.110011220109610345, and the experimental animal use license number of SCXK (Beijing) 2021-0011.
Experimental method: SD rats were randomly divided into […] based on the body weight with 8 animals in each group, namely, vehicle group, the polypeptide group (50 μg/cm^2), comparative polypeptide 1 group (41.90 μg/cm^2) and comparative polypeptide 2 group (52.66 μg/cm^2). The amino acid sequence of comparative polypeptide 1 is Glu-Pro-Val-Pro-Leu; and the amino acid sequence of comparative polypeptide 2 is Pro-Ala-Ala-Glu-Pro-Val-Pro-Leu-Val-Lys-Gln-Glu.
After each experimental rat was anesthetized by intraperitoneal injection of 2% pentobarbital sodium (0.2 mL/100 g), a 2 cm^2 full-layer skin defect wound was prepared at each of both sides of the back spine. After hemostasis of the wound, the corresponding drug was administered at the wound locally by group. Each group was administered once a day, with a dosed volume of 72 μL/wound each time, for 14 consecutive days. After the administration, the wound was covered with a sterile vaseline gauze (5 cm*5 cm), and bandaged with multi-layer sterile gauzes. After the wound surgery, the wound was photographed, and the wound area was recorded as the baseline value (the wound was recorded as Day0). During the administration period, the areas of the wounds were photographed and measured 3 times a week, and the healing was observed.

Glu-Pro-Val-Pro-Leu (EPVPL; printed: Glu-Pro-Val-Pro-Leu) [Comparative polypeptide 1]
Wound healing rate (Day 0 (baseline)): 0.00 ± 0.00% | Wound healing rate (Day 3): 21.13 ± 17.43% | Wound healing rate (Day 5): 40.18 ± 17.43% | Wound healing rate (Day 7): 68.84 ± 7.64% | Wound healing rate (Day 10): 88.90 ± 8.40%

PAAEPVPLVKQE [Comparative polypeptide 2]
Wound healing rate (Day 0 (baseline)): 0.00 ± 0.00% | Wound healing rate (Day 3): 17.21 ± 22.78% | Wound healing rate (Day 5): 50.08 ± 16.55% | Wound healing rate (Day 7): 65.26 ± 14.46% | Wound healing rate (Day 10): 90.34 ± 3.04%
